Reference: patent publication US9631096B2, “Dye compositions, methods of preparation, conjugates thereof, and methods of use” (CORNELL UNIVERSITY, priority 2012, dated 2017)

Experiments:
[1] = Single-molecule FRET with donor and acceptor dyes on ribosomal proteins S13 and L1; format: physicochemical, E. coli; settings: ribosome S13/L1 labels, 532 nm excitation, same day and conditions, FIG. 12
Excerpt: In this study, donor and acceptor fluorophores are attached to two ribosomal proteins (S13 small subunit; L1 large subunit, respectively).
Ribosomal protein S13 was PCR cloned from E. coli strain K12 genomic DNA into the pPROEX HTb vector with a TEV-protease-cleavable histidine (His)6 tag and a 12-residue peptide encoding the S6 epitope for the Sfp phosphopantetheinyl transferase reaction (amino acid sequence, [sequence]) fused at the N terminus (N-Sfp). {Yin, J., Lin, A. J., Golan, D. E. & Walsh, C. […] 1, 280-285 (2006)} After transformation of this plasmid into an E. coli ΔS13 knockout strain, cells were cultured and ribosomes were harvested as previously described. {Wang, L., Altman, R. B. & Blanchard, S. C. […]
Single-molecule FRET experiments were performed at room temperature in Tris-polymix with 5 mM Mg2+ buffer, as previously described {Wang, L., Altman, R. B. & Blanchard, S. C. […] The smFRET data were acquired by directly exciting the Cy3 fluorophore at 532 nm (LaserQuantum) while the Cy3 and Cy5 intensities were simultaneously recorded in Metamorph (Molecular Devices) with a 40-ms integration time. The data were analyzed in MATLAB (MathWorks) and plotted in Origin (OriginLab), as previously described. {Munro, J. B., Altman, R. B., O'Connor, N. & Blanchard, S. C.

[2] = cited from earlier work
[3] = Laser flash photolysis (time-resolved transient absorption) of Cy5 derivatives with benzophenone sensitizer; format: physicochemical; settings: for lifetime of the 700 nm transient: acetonitrile, BP 5 mM, Cy5 22 μM
Excerpt: This experiment examined whether enhanced photostability of the Cy5 fluorophore, when covalently linked to protective agents (COT, NBA or Trolox) (Chart 1) can be specifically attributed to a triplet state quenching mechanism using laser flash photolysis (time-resolved transient absorption spectroscopy).
Because the formation of triplet states of Cy5 is inefficient (triplet quantum yield <0.003) upon direct excitation, a triplet sensitizer was employed to more efficiently populate the Cy5 triplet state (^3Cy5*) through an energy transfer mechanism (eq 1).
Deoxygenated acetonitrile solutions containing BP and Cy5 were irradiated with light pulses from a Nd-YAG laser at 355 nm (5 ns pulse width) to generate transient absorption kinetic traces across the visible spectrum. From these traces, transient absorption spectra at different times after the laser pulse were constructed (FIG. 3). Directly after the laser pulse the spectrum is dominated by the triplet absorption of BP, which is known to show a peak at 525 nm. […] Assignment of this new transient at 700 nm as the triplet state absorption of Cy5 was subsequently confirmed by performing quenching studies in the presence of a small amount of oxygen (0.45 mM; generated by bubbling the acetonitrile solution with a gas mixture of 5% O2 and 95% N2).
In addition to different protective agents (COT, NBA and Trolox), the length of the spacer between Cy5 and the protective agent was also varied. Laser flash photolysis experiments in argon-saturated acetonitrile solutions using BP as the sensitizer were performed on each of the Cy5 derivatives. […] The initial growth in transient absorption is caused by the energy transfer process from ^3BP* to the Cy5 chromophore analog in eq 1, which is then followed by the decay of the Cy5 triplet state. The concentrations of the Cy5 derivatives were optimized in order to ensure accurate triplet lifetime determination. […]

[4] = Single-molecule TIRF fluorescence imaging of dye-labeled duplex DNA (photostability); format: physicochemical
Description: Each DNA strand was individually labeled with a single, NHS-activated “self-healing” fluorophore and hybridized to a complementary strand. Purified duplexes were used for single-molecule experiments.
All experiments were performed using a laboratory built, prism-based TIRE apparatus. Biotinylated DNA molecules were immobilized via a biotin-streptavidin interaction within microfluidic channels constructed on quartz slides. Fluorescence from surface-immobilized molecules, illuminated via the evanescent wave generated by total internal reflection of a 640 nm laser source, was collected using a water-immersion objective and imaged onto a EMCCD camera. […]
The photophysical properties of fluorophores were analyzed using automated software built in-house using Matlab. To extract kinetic parameters of blinking and photobleaching, the fluorescence traces were normalized to the mean fluorescence intensity of each dataset and idealized using the SKM algorithm and a 3-state model with one fluorescent (on) state, a transient dark state (blinking) and a permanent dark state (photobleaching). Time on (τon) was calculated by fitting the cumulative distribution to an exponential function.
By tracking the fluorescence of individual molecules over time, the intensity and duration of fluorescence, as well as the kinetics of blinking and photobleaching could be quantified. […]

Row | SMILES | brightness and duration of donor and acceptor fluorescence / quality of FRET data [1] | quantum yield ([2]; fluorescence) | triplet quantum yield ([2]; upon direct excitation) | τtriplet (triplet lifetime) ([3]; deoxygenated acetonitrile, BP sensitizer, 355 nm pulse, triplet absorption at 700 nm) [μs] | lifetime of the 700 nm transient ([3]; in the absence of O2 (argon purged)) [μs] | lifetime of the 700 nm transient ([3]; in the presence of O2 (0.45 mM; 5% O2/95% N2)) [μs] | time period of fluorescence before blinking or photobleaching (visual inspection of traces) ([4]; individual fluorescence traces, dye on double stranded DNA, 641 nm) | Average number of photons (10^4 photons) detected before photobleaching or blinking ([4]; single-molecule measurements, dye on duplex DNA, TIRF, 641 nm illumination, deoxygenated solution)
1 | CCN1C(=CC=CC2=[N+](CCCCCC(=O)O)c3ccc(S(=O)(=O)O)cc3C2(C)C)C(C)(C)c2cc(S(=O)(=O)[O-])ccc21 [Cy3] | short-lived and are noisy and relatively difficult to analyze | – | – | – | – | – | – | –
2 | CCN1/C(=C/C=C/C=C/C2=[N+](CCCCCC(=O)O)c3ccc(S(=O)(=O)O)cc3C2(C)C)C(C)(C)c2cc(S(=O)(=O)[O-])ccc21 [Cy5] | short-lived and are noisy and relatively difficult to analyze | approximately 0.3 | < 0.003 | 63 ± 3 | ~22 | 1.7 | shortest | 2.1 ± 0.1 10^4 photons
